Assay [1] has as its system HK-2. The experiment in a line: Anti-inflammatory activity against H/R induced damage in human HK-2 cells assessed as inhibition of TLR4 protein expression pretreated with compound followed by hypoxic reoxygenation induction. The format is functional, cell-based.
The species named for another assay is Rattus norvegicus. Put plainly: Protection against kidney ischemia-reperfusion injury in rat model assessed as decrease in blood creatinine level. The format is functional, organism-based.
Assay [2] has as its system HK-2. Put plainly: Anti-inflammatory activity against H/R induced damage in human HK-2 cells assessed as inhibition of IL-1beta protein expression pretreated with compound followed by hypoxic reoxygenation induction. Format: functional, cell-based.
In assay [3] the test system is HK-2. Put plainly: Anti-inflammatory activity against H/R induced damage in human HK-2 cells assessed as inhibition of p-NFkappaB protein expression pretreated with compound followed by hypoxic reoxygenation induction. The format is functional, cell-based.
In assay [4] the test system is HK-2. Put plainly: Anti-inflammatory activity against H/R induced damage in human HK-2 cells assessed as inhibition of MyD88 protein expression pretreated with compound followed by hypoxic reoxygenation induction. Format: functional, cell-based.

Here are results for four compounds from ChEMBL document CHEMBL6096666, “Design, synthesis and biological evaluation of alginate oligosaccharide derivatives” (Bioorg Med Chem Lett, 2025).

The source made the active and inactive calls. No cut-off for these calls is given here.

Take `O=C(O)[C@@H]1C[C@@H](O)[C@@H](O)[C@H](O[C@@H]2[C@@H](O)[C@@H](O)[C@H](O[C@@H]3[C@@H](O)[C@@H](O)[C@H](O[C@@H]4[C@@H](O)[C@@H](O)[C@@H](O)O[C@@H]4C(=O)O)O[C@@H]3C(=O)O)O[C@@H]2C(=O)O)O1`: in the assay with HK-2 [1], the outcome was Active.

Take `O=C(O)[C@@H]1C[C@@H](O)[C@@H](O)[C@H](O[C@@H]2[C@@H](O)[C@@H](O)[C@@H](O)O[C@@H]2C(=O)O)O1`: the outcome in the assay listed under Rattus norvegicus and in the assay on HK-2 [1] was Active.

For `O=C(O)[C@@H]1C[C@@H](O)[C@@H](O)[C@H](O[C@@H]2[C@@H](O)[C@@H](O)[C@H](O[C@@H]3[C@@H](O)[C@@H](O)[C@@H](O)O[C@@H]3C(=O)O)O[C@@H]2C(=O)O)O1`, the result in the assay filed under Rattus norvegicus and in the assay on HK-2 [2] was Active.

Regarding `O=C(O)[C@@H]1C[C@@H](O)[C@@H](O)[C@H](O[C@@H]2[C@@H](O)[C@@H](O)[C@H](O[C@H]([C@@H](O)[C@@H](O)C(=O)O)[C@H](O)C(=O)O)O[C@@H]2C(=O)O)O1`, the outcome in the assay with HK-2 [3], in the assay on HK-2 [4], in the assay with HK-2 [2] and in the assay on HK-2 [1] was Active.
